From patent US20240229156A1, “METHODS FOR USING A HYPOMETHYLATING AGENT TO TREAT DISEASES AND DISORDERS BASED ON GENE MUTATION PROFILES” (Celgene Corporation, priority 2021, published 2024)
Several values for one entry are separate records, joined by “and”; a condition that tells them apart may be missing. Identical values can stand only once.

Key:
DNA methylation = settings: clinical studies; cited from earlier work
[1] = tested on: patients with AML who were in first remission after intensive chemotherapy; assay: Phase 3 QUAZAR (CC0486-AML-001) trial of CC-486 maintenance: gene mutation, cytogenetic and MRD status correlated with OS and RFS; format: in vivo, human
Protocol: The correlative analyses of gene mutations with clinical indices (overal survival (OS), relapse-free survival (RFS)) were performed in the CC0486-AML-001 study (the QUAZAR® study). […] In this clinical trial, the key enrollment criteria included newly diagnosed de novo or secondary AML patients, with either intermediate or poor risk (based on the 2012 National Comprehensive Cancer Network (NCCN) classification), were 55 years of age or older, who were in complete remission with or without complete blood count recovery. Patients were also those that were not candidates for hematopoietic stem-cell transplantation. See, ClinicalTrials.gov Identifier: NCT01757535, https://clinicaltrials.gov/ct2/show/NCT01757535, the entirety of which is incorporated herein by reference.
The primary end point was overall survival (OS). Secondary end points included relapse-free survival (RFS).
Bone marrow mononuclear cell (BMMC) DNA was isolated from patients at diagnoses (before consideration for study enrollment) and specific gene mutations (NPM1, FLT3 ITD, FLT3 TKD, CEBPA, MLL, P53, cKIT, NRAS) were determined by investigator report or retrospectively identified by central sequencing for available samples. Cytogenetic risk classification was performed according to the 2012 NCCN Guidelines (source: National Comprehensive Cancer Network Clinical Practice Guidelines in Oncology for Acute Myeloid Leukemia; available at https://www.nccn.org/professionals/physician_gls/PDF/aml.pdf); only intermediate- and poor-risk patients were eligible.
At screening (post-IC/C induction chemotherapy/consolidation, when patients achieved complete remission (CR) or CR with incomplete blood count recovery (CRi), gene mutations were identified by targeted next-generation sequencing (ArcherDX VariantPlex Core Myeloid panel; 37 genes, ArcherDX, Boulder, CO) of DNA isolated from BMMCs. Gene mutational analyses and variants reported were based on the sequence coverages of the 37-gene AML panel. Mutation variants were filtered. Karyotypes from post-IC/C bone marrow samples were determined by MLL (Munich Leukemia Laboratory, Munich, Germany). […] defined as three or more cytogenetic abnormalities in the absence of a WHO designated recurring translocation or inversion; i.e., t(8;21)(q22;q22.1); t(9;11)(p21.3;q23.3); inv(3)(q21.3q26.2) or t(3;3)(q21.3;q26.2); t(6;9)(p23;q34.1); t(v;11;q23.3).
When applicable, statistical analyses were performed using Prism Software (v.8.0.0; GraphPad Software, San Diego, CA) or R statistical computing software environment (v3.6.3). OS and RFS were estimated using Kaplan-Meier methods and P values were calculated using the log-rank test. Cox regression analyses were performed to evaluate the association of gene mutation status and treatment arm with OS and RFS. Gene mutation frequencies and landscape were visualized. Correlative analyses including single gene mutation and co-mutational queries were performed with clinical response. All possible pairings between genes and/or cytogenetic alterations were evaluated for tendency to co-occur or for mutual exclusivity; i.e., a pair of alterations occurring together more frequently or rarely than expected by their individual frequencies, as described by Papaemmanuil et al. (N Engl J Med, 2016). 2×2 contingency tables were generated to test putative associations using Fisher's exact tests and adjusted to control for multiple hypothesis testing. Significant differences between groups were assessed using statistical methods listed in the corresponding Figure footnotes. P-values were considered statistically significant at *p≤0.05, **p≤0.01, or ***p≤0.001.

Nc1ncn([C@@H]2O[C@H](CO)C(O)C2O)c(=O)n1 (stereo partly drawn) [CC-486, 4-amino-l-B-D-ribofuranosyl-1,3,5-triazin-2(1H)-one]
demethylative effects as compared to VIDAZA (DNA methylation): more sustainable demethylative effects
median OS ([1]; DNMT3A mutation postIC/C, FIG. 18A, placebo 13.0, p=0.0003): 24.8 months
median RFS ([1]; DNMT3A mutation postIC/C, FIG. 18B, placebo 4.7, p<0.0001): 18.4 months
median OS ([1]; FIG. 6B (RFS figure), NPM1 mutation at diagnosis, placebo 6.9, p=0.0098): 23.2 months
median OS ([1]; FIG. 9B (RFS figure), FLTITD/FLT3-TKD mutation, placebo 4.6, p=0.0475): 23.1 months
median OS ([1]; FIG. 10B (RFS figure), NPM1 mutation and FLTITD WT, placebo 7.8, p=0.0572): 21.1 months
median OS ([1]; FIG. 10F (RFS figure), NPM1 WT and FLTITD mutation, placebo 4.0, p=0.9446): 4.5 months
median OS ([1]; FLTITD/FLT3-TKD mutation NPM1 WT, FIG. 13B, placebo 8.7, p=0.4105): 11.8 months
prolonged RFS, CC-486 vs placebo ([1]; FLTITD/FLT3-TKD mutation NPM1 WT, FIG. 13D): no statistical significance
median OS ([1]; FLTITD/FLT3-TKD mutation at diagnosis, placebo 9.7, p=0.0797): 28.2 months
median RFS ([1]; FLTITD/FLT3-TKD wild type, placebo 4.9, p=0.0009): 10.2 months
median OS ([1]; FLTITD/FLT3-TKD wild type, placebo 15.2, p=0.0123): 24.7 months
median OS ([1]; NPM1 WT and FLTITD mutation, FIG. 10E, placebo 9.7, p=0.9207): 9.2 months
median OS ([1]; NPM1 mutation FLTITD WT, FIG. 10A, placebo 18.0, p=0.0802): 47.1 months
median OS ([1]; NPM1 mutation FLTITD/FLT3-TKD WT, FIG. 13A, placebo 20.2, p=0.0763): 47.1 months
median RFS ([1]; NPM1 mutation FLTITD/FLT3-TKD WT, FIG. 13C, placebo 7.7, p=0.0827): 18.4 months
median OS ([1]; NPM1 mutation FLTITD/FLT3-TKD mutation, FIG. 13A and 13B, placebo 13.4, p=0.0827): 46.1 months
median RFS ([1]; NPM1 mutation FLTITD/FLT3-TKD mutation, FIG. 13C and 13D, placebo 4.9, p=0.0278): 46.1 months
median OS ([1]; NPM1 mutation and FLTITD mutation, FIG. 10C, placebo 11.5, p=0.0488): 49.3 months
median RFS ([1]; NPM1 mutation and FLTITD mutation, FIG. 10D, placebo 4.6, p=0.0368): 10.2 months
median OS ([1]; NPM1 mutation and MRD negative status, FIG. 6C): 47.2 months
median OS ([1]; NPM1 mutation and MRD positive status, FIG. 6C): 32.7 months
median RFS ([1]; NPM1 mutation at diagnosis, FIG. 5C, vs NPM1 wild type p<0.0001): 23.23 months
median OS ([1]; NPM1 mutation at diagnosis, placebo 15.9, p=0.0138, vs NPM1 wild type p=0.0006): 46.09 months and 46.1 months
median OS ([1]; NPM1 wild type and MRD negative, FIG. 6C): 24.6 months
median OS ([1]; NPM1 wild type and MRD positive status, FIG. 6C): 13.8 months
median RFS ([1]; NPM1 wild type at diagnosis, placebo 4.6, p=0.0029): 7.688 months and 7.7 months
median OS ([1]; NPM1 wild type at diagnosis, placebo 14.6, p=0.0365): 19.58 months and 19.6 months
OS, CC-486 versus placebo ([1]; WT DNMT3A postIC/C): No differences
RFS, CC-486 versus placebo ([1]; WT DNMT3A postIC/C): No differences
OS, CC-486 versus placebo ([1]; WT p53 postIC/C): increases
RFS, CC-486 versus placebo ([1]; WT p53 postIC/C): increases
OS, CC-486 versus placebo ([1]; abnormal karyotype (>1 abnormality) postIC/C, FIG. 17C): no statistically significant differences
RFS, CC-486 versus placebo ([1]; abnormal karyotype (>1 abnormality) postIC/C, FIG. 17D): no statistically significant differences
median RFS ([1]; complex karyotype (≥4 abnormalities) postIC/C, vs normal karyotype p<0.0001): 1.906 months
median OS ([1]; complex karyotype (≥4 abnormalities) postIC/C, vs normal karyotype p=0.0003): 6.932 months
median OS ([1]; de novo AML, FIG. 1A, placebo 14.55, p=0.0068): 23.23 months
median RFS ([1]; de novo AML, FIG. 1B, placebo 4.90, p=0.0002): 10.15 months
median RFS ([1]; intermediate cytogenetic risk at diagnosis, placebo 5.8, p=0.0004): 11 months
median OS ([1]; intermediate cytogenetic risk at diagnosis, placebo 16, p=0.0093): 25 months
RFS, CC-486 versus placebo ([1]; mutations in SRSF2 alone postIC/C, FIG. 21A, p=0.0809): trend for improved RFS
median OS ([1]; normal karyotype (no abnormalities) postIC/C, placebo 14.95, p=0.004, vs complex karyotype p=0.0003): 25.10 months and 25.1 months
median RFS ([1]; normal karyotype postIC/C, placebo 4.895, p<0.0001, vs complex karyotype p<0.0001): 10.97 months
median OS ([1]; other patients (lack NPM1 mutation in combination with FLTITD WT), FIG. 10A, placebo 14.6, p=0.0119): 20.2 months
median RFS ([1]; other patients, FIG. 10B, placebo 4.6, p=0.0006): 7.9 months
median OS ([1]; other patients, FIG. 10C, placebo 14.9, p=0.0080): 24.7 months
median RFS ([1]; other patients, FIG. 10D, placebo 4.1, p=0.0008): 10.2 months
median OS ([1]; other patients, FIG. 10E, placebo 14.9, p=0.0020): 25.0 months
median RFS ([1]; other patients, FIG. 10F, placebo 4.9, p<0.0001): 10.2 months
OS, CC-486 versus placebo ([1]; p53 mutation postIC/C, FIG. 18C): no statistically significant differences
median RFS ([1]; p53 mutation postIC/C, FIG. 18D, placebo 3.5, p=0.0579): 7.4 months
differences in median OS or median RFS, normal versus abnormal karyotype ([1]; patients treated with CC-486, abnormal karyotype (1-3 abnormalities), FIG. 16): statistically significant differences
median RFS ([1]; poor cytogenetic risk at diagnosis, placebo 3.7, p=0.0776): 4.6 months
median OS ([1]; poor cytogenetic risk at diagnosis, placebo 7.4, p=0.0602): 14 months
median OS ([1]; secondary AML, FIG. 1A, placebo 15.67, p=0.1072): 28.19 months
median RFS ([1]; secondary AML, FIG. 1B, placebo 2.45, p=0.0118): 4.67 months
